According to ChEMBL document CHEMBL4732190, “Identification of Potent and Long-Acting Single-Chain Peptide Mimetics of Human Relaxin-2 for Cardiovascular Diseases” (J Med Chem, 2021):
≈ marks a conversion by molar mass, not a printed value. *1 amine or outer side, *2 acyl side, *3 side chain or, on linkers, in order; H or OH if unused. Where a SMILES comes first, the peptide text is derived from it. [ ]: non-standard residue; d: D form. The star is where a group is joined. PEG11 = NCCOCCOCCOCCOCCOCCOCCOCCOCCOCCOCCOCCC(=O)O; X9 = NC(=O)CC[C@H](N*)C(=O)CCCCCCCCCCCCCCCCCC(=O)O; X8 = NC(=O)CC[C@H](N*)C(=O)CCCCCCCCCCCCCCCC(=O)O; X7 = CCCCCCCCCCCCCCCC(=O)[C@H](CCC(N)=O)N*; β2hAla(2S) = C[C@@H](CN[*:1])C(=O)[*:2]; hLys = NCCCCC[C@H](N)C(=O)O; Nle = CCCC[C@H](N)C(=O)O

Experiments:
[1] = Stability in human plasma assessed as parent compound remaining level at 5 uM remaining after 4 hrs; assay type: ADME, cell-free; conditions: read-out: Stabilty
Relaxin receptor 1 [2] = target: T1, Relaxin receptor 1 (Homo sapiens, UniProt Q9HBX9); test: Agonist activity at RXFP1 endogenously expressed in human OVCAR-5 cells assessed as increase in IBMX-induced cAMP accumulation pretreated with IBMX for 40 mins followed by compound addition and measured after 30 mins by HTRF assay; assay type: functional, cell-based
T1 sequence (Q9HBX9 whole entry): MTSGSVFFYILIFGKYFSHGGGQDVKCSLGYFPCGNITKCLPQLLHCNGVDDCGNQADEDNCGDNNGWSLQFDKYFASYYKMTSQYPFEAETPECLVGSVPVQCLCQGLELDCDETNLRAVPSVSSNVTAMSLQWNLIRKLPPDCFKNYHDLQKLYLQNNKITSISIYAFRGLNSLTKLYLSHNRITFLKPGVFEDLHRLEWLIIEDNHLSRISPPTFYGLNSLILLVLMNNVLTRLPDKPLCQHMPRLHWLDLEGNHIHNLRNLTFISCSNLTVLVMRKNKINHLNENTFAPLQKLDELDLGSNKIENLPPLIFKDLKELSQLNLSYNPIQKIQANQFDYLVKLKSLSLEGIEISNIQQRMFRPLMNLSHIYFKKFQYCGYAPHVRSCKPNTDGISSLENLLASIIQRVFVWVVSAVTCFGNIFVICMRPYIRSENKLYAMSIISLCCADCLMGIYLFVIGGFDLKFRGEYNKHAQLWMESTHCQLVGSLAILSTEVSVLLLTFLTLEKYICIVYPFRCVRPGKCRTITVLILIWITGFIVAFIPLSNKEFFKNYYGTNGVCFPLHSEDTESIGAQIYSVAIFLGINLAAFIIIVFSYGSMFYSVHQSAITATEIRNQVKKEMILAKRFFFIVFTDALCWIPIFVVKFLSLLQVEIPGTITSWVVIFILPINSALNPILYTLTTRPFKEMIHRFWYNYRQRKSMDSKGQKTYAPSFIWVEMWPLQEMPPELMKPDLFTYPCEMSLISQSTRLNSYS

[3] = target: T2, Relaxin receptor 1 (Homo sapiens) (UniProt Q9HBX9); test: Agonist activity at RXFP1 endogenously expressed in human OVCAR-5 cells assessed as increase in IBMX-induced cAMP accumulation pretreated with IBMX for 40 mins followed by compound addition and measured after 30 mins by HTRF assay relative to relaxin; assay type: functional, cell-based; conditions: filed as agonist
T2 sequence (whole entry): T1 sequence (Q9HBX9 whole entry)

[4] = Aqueous solubility of compound in acetate buffer at pH 4.5 measured after 24 hrs by UPLC analysis; assay type: physicochemical
[5] = Aqueous solubility of compound in phosphate buffer at pH 7.4 measured after 24 hrs by UPLC analysis; assay type: physicochemical
[6] = Stability in rat plasma assessed as parent compound remaining level at 5 uM remaining after 4 hrs; assay type: ADME, cell-free; conditions: read-out: Stabilty
Relaxin receptor 1 [7] = target: T1, Relaxin receptor 1; test: Agonist activity at RXFP1 endogenously expressed in human OVCAR-5 cells assessed as increase in IBMX-induced cAMP accumulation pretreated with IBMX for 40 mins followed by compound addition and measured after 30 mins in presence of 2 % HSA by HTRF assay; assay type: functional, cell-based
[8] = Half life in Sprague-Dawley rat at 1 mg/kg, iv measured upto 72 hrs by LC-HRMS analysis; assay type: ADME, organism-based; conditions: in vivo

Row | remaining at 4 h, 5 µM [1] [%] | EC50 (Relaxin receptor 1 [2]) [nM] | Emax [3] [%] | solubility at 24 h [4] [µg/mL] | solubility at 24 h [5] [µg/mL] | remaining at 4 h, 5 µM [6] [%] | EC50 (Relaxin receptor 1 [7]) [nM] | half-life [8] [h] | Compound
1 | 79 | 54 | 95 | 4800 (≈ 1490 µM) | 3800 (≈ 1180 µM) | 29 |  |  | CC[C@H](C)[C@H](NC[C@@H](C)CNC(=O)[C@@H](NC(=O)[C@H](CCC(N)=O)NC(=O)[C@H](C)NC(=O)[C@H](CCCNC(=N)N)NC(=O)[C@@H](NC(=O)[C@H](CCCCN)NC(=O)[C@H](CCC(=O)O)NC(=O)[C@H](CCCNC(=N)N)NC(=O)CNC(=O)[C@H](CCC(=O)O)NC(=O)[C@H](CC(C)C)NC(=O)[C@H](CCCCN)NC(=O)[C@@H](NC(=O)[C@@H](NC(C)=O)C(C)C)[C@@H](C)CC)C(C)C)[C@@H](C)CC)C(=O)N[C@@H](CCC(=O)O)C(=O)NCC(=O)N[C@@H](CCSC)C(=O)N[C@@H](CO)C(=O)N[C@@H](CCCCN)C(=O)N[C@@H](Cc1c[nH]c2ccccc12)C(=O)N[C@@H](CO)C(=O)N[C@@H](CCCCN)C(=O)N[C@@H](CCCNC(=N)N)C(=O)N[C@@H](CCCCN)C(=O)N[C@@H](CCCCN)C(N)=O
2 |  | 809 | 70 |  |  |  | > 2000 |  | CCCC[C@H](NC(=O)[C@H](CCSC)NC(=O)CNC(=O)[C@H](CCC(=O)O)NC(=O)[C@@H](C)CNC(=O)[C@@H](C)CNC(=O)[C@@H](NC(=O)[C@H](CCCCCNC(C)=O)NC(=O)[C@H](CCCCN)NC(=O)[C@H](C)NC(=O)[C@H](CCCNC(=N)N)NC(=O)[C@@H](NC(=O)[C@H](CCCCN)NC(=O)[C@H](CCC(=O)O)NC(=O)[C@H](CCCNC(=N)N)NC(=O)[C@H](CCC(=O)O)NC(=O)CNC(=O)[C@H](CCC(=O)O)NC(=O)[C@H](CC(C)C)NC(C)=O)C(C)C)[C@@H](C)CC)C(=O)N[C@@H](CCCCN)C(=O)N[C@@H](CCCCCNC(C)=O)C(=O)N[C@@H](CO)C(=O)N[C@H](C(=O)N[C@@H](Cc1c[nH]c2ccccc12)C(=O)N[C@@H](CO)C(=O)NC[C@H](C)C(=O)N[C@@H](CCCNC(=N)N)C(=O)N[C@@H](CCCCN)C(=O)N[C@@H](CCCCN)C(=O)N[C@@H](CCCCCNC(C)=O)C(=O)N[C@@H](CCCCN)C(=O)N[C@@H](CCC(=O)O)C(=O)N[C@@H](CCC(=O)O)C(=O)N[C@@H](CCC(N)=O)C(=O)CCCCCCCCCCCCCCCC(=O)O)[C@@H](C)O (Ac-LEGEREKVRAK[hLys](Ac)I[β2hAla(2S)][β2hAla(2S)]EGM[Nle]K[hLys](Ac)STWS[β2hAla(2S)]RKK[hLys](Ac)KEE-X8)
3 |  | 368 | 75 |  |  |  | > 2000 |  | CCCC[C@H](NC(=O)[C@H](CCSC)NC(=O)CNC(=O)[C@H](CCC(=O)O)NC(=O)[C@@H](C)CNC(=O)[C@@H](C)CNC(=O)[C@@H](NC(=O)[C@H](CCCCCNC(C)=O)NC(=O)[C@H](CCCCN)NC(=O)[C@H](C)NC(=O)[C@H](CCCNC(=N)N)NC(=O)[C@@H](NC(=O)[C@H](CCCCN)NC(=O)[C@H](CCC(=O)O)NC(=O)[C@H](CCCNC(=N)N)NC(=O)[C@H](CCC(=O)O)NC(=O)CNC(=O)[C@H](CCC(=O)O)NC(=O)[C@H](CC(C)C)NC(C)=O)C(C)C)[C@@H](C)CC)C(=O)N[C@@H](CCCCN)C(=O)N[C@@H](CCCCCNC(C)=O)C(=O)N[C@@H](CO)C(=O)N[C@H](C(=O)N[C@@H](Cc1c[nH]c2ccccc12)C(=O)N[C@@H](CO)C(=O)NC[C@H](C)C(=O)N[C@@H](CCCNC(=N)N)C(=O)N[C@@H](CCCCN)C(=O)N[C@@H](CCCCN)C(=O)N[C@@H](CCCCCNC(C)=O)C(=O)N[C@@H](CCCCN)C(=O)N[C@@H](CCC(=O)O)C(=O)N[C@@H](CCC(=O)O)C(=O)N[C@@H](CCC(N)=O)C(=O)CCCCCCCCCCCCCCCCCC(=O)O)[C@@H](C)O (Ac-LEGEREKVRAK[hLys](Ac)I[β2hAla(2S)][β2hAla(2S)]EGM[Nle]K[hLys](Ac)STWS[β2hAla(2S)]RKK[hLys](Ac)KEE-X9)
4 |  | 3.2 | 74 |  |  |  |  | 6.4 | CCCCCCCCCCCCCCCC(=O)[C@H](CCC(N)=O)NC(=O)[C@H](CCC(=O)O)NC(=O)[C@H](CCC(=O)O)NC(=O)[C@H](CCCCN)NC(=O)CCOCCOCCOCCOCCOCCOCCOCCOCCOCCOCCOCCNC(=O)[C@H](CCCCN)NC(=O)[C@H](CCCNC(=N)N)NC(=O)[C@@H](C)CNC(=O)[C@H](CO)NC(=O)[C@H](Cc1c[nH]c2ccccc12)NC(=O)[C@@H](NC(=O)[C@H](CO)NC(=O)[C@H](CCCC)NC(=O)[C@H](CCSC)NC(=O)CNC(=O)[C@H](CCC(=O)O)NC(=O)[C@@H](C)CNC(=O)[C@@H](C)CNC(=O)[C@@H](NC(=O)[C@H](CCC(N)=O)NC(=O)[C@H](C)NC(=O)[C@H](CCCNC(=N)N)NC(=O)[C@@H](NC(=O)[C@H](CCCCN)NC(=O)[C@H](CCC(=O)O)NC(=O)[C@H](CCCNC(=N)N)NC(=O)[C@H](CCC(=O)O)NC(=O)CNC(=O)[C@H](CCC(=O)O)NC(=O)[C@H](CC(C)C)NC(C)=O)C(C)C)[C@@H](C)CC)[C@@H](C)O (Ac-LEGEREKVRAQI[β2hAla(2S)][β2hAla(2S)]EGM[Nle]STWS[β2hAla(2S)]RK[PEG11]KEE-X7)
5 | 79 | 14 | 99 |  |  | 24 |  |  | CC[C@H](C)[C@H](NC(=O)[C@H](CCC(N)=O)NC(=O)[C@H](C)NC(=O)[C@H](CCCNC(=N)N)NC(=O)[C@@H](NC(=O)[C@H](CCCCN)NC(=O)[C@H](CCC(=O)O)NC(=O)[C@H](CCCNC(=N)N)NC(=O)CNC(=O)[C@H](CCC(=O)O)NC(=O)[C@H](CC(C)C)NC(C)=O)C(C)C)C(=O)NC[C@H](C)C(=O)NC[C@H](C)C(=O)N[C@@H](CCC(=O)O)C(=O)NCC(=O)N[C@@H](CCSC)C(=O)N[C@@H](CO)C(=O)N[C@@H](CCCCN)C(=O)N[C@@H](Cc1c[nH]c2ccccc12)C(=O)N[C@@H](CO)C(=O)N[C@@H](CCCCN)C(=O)N[C@@H](CCCNC(=N)N)C(=O)N[C@@H](CCCCN)C(=O)N[C@@H](CCCCN)C(N)=O (HELM PEPTIDE1{[ac].L.E.G.R.E.K.V.R.A.Q.I.[C[C@@H](CN[*:1])C(=O)[*:2]].[C[C@@H](CN[*:1])C(=O)[*:2]].E.G.M.S.K.W.S.K.R.K.K.[am]}$$$$V2.0)
6 |  | 708 | 78 |  |  |  |  |  | CC[C@H](C)[C@H](NC(=O)[C@H](CCC(N)=O)NC(=O)[C@H](C)NC(=O)[C@H](CCCNC(=N)N)NC(=O)[C@@H](NC(=O)[C@H](CC(C)C)NC(=O)[C@H](CCC(=O)O)NC(=O)[C@H](CCCNC(=N)N)NC(=O)CNC(=O)[C@H](CO)NC(=O)[C@H](CC(C)C)NC(=O)[C@H](CCCCN)NC(=O)[C@@H](NC(=O)[C@@H](NC(C)=O)C(C)C)[C@@H](C)CC)C(C)C)C(=O)NC[C@H](C)C(=O)N[C@H](C(=O)N[C@@H](CO)C(=O)NCC(=O)N[C@@H](CCSC)C(=O)N[C@@H](CO)C(=O)N[C@H](C(=O)N[C@@H](Cc1c[nH]c2ccccc12)C(=O)N[C@@H](CO)C(=O)N[C@@H](CCCCN)C(=O)N[C@@H](CCCNC(=N)N)C(=O)N[C@@H](CO)C(=O)N[C@@H](CC(C)C)C(N)=O)[C@@H](C)O)[C@@H](C)CC (HELM PEPTIDE1{[ac].V.I.K.L.S.G.R.E.L.V.R.A.Q.I.[C[C@@H](CN[*:1])C(=O)[*:2]].I.S.G.M.S.T.W.S.K.R.S.L.[am]}$$$$V2.0)
7 |  | 92.1 | 99 |  |  |  |  |  | CC[C@H](C)[C@H](NC(=O)[C@H](CCC(N)=O)NC(=O)[C@H](C)NC(=O)[C@H](CCCNC(=N)N)NC(=O)[C@@H](NC(=O)[C@H](CC(C)C)NC(=O)[C@H](CCC(=O)O)NC(=O)[C@H](CCCNC(=N)N)NC(=O)CNC(=O)[C@H](CO)NC(=O)[C@H](CC(C)C)NC(=O)[C@H](CCCCN)NC(=O)[C@@H](NC(=O)[C@@H](NC(C)=O)C(C)C)[C@@H](C)CC)C(C)C)C(=O)NC[C@H](C)C(=O)NC[C@H](C)C(=O)N[C@@H](CO)C(=O)NCC(=O)N[C@@H](CCSC)C(=O)N[C@@H](CO)C(=O)N[C@H](C(=O)N[C@@H](Cc1c[nH]c2ccccc12)C(=O)N[C@@H](CO)C(=O)N[C@@H](CCCCN)C(=O)N[C@@H](CCCNC(=N)N)C(=O)N[C@@H](CCCCN)C(=O)N[C@@H](CCCCN)C(N)=O)[C@@H](C)O (HELM PEPTIDE1{[ac].V.I.K.L.S.G.R.E.L.V.R.A.Q.I.[C[C@@H](CN[*:1])C(=O)[*:2]].[C[C@@H](CN[*:1])C(=O)[*:2]].S.G.M.S.T.W.S.K.R.K.K.[am]}$$$$V2.0)
8 |  | 897 | 92 |  |  |  |  |  | Ac-EEVIKLSGRELVRAQIAISGMSTWSKRKK-NH2
9 |  | 522 | 89 |  |  |  |  |  | Ac-VIKLSGRELVRAQIAISGMSTWSKRKK-NH2
10 | 3 |  |  | 1900 | 14 | 2 |  |  | H-VIKLSGRELVRAQIAISGMSTWSKRSL-NH2
